From patent publication US20070253896A1, “7,9-Dihydro-Purin-8-One and Related Analogs as HSP90-Inhibitors” (CONFORMA THERAPEUTICS CORPORATION, priority 2006, published 2007)

Key:
HER2/Neu protein = assay: HER2 Degradation Assay; assay type: cell-based; conditions: Homo sapiens; MCF7 breast carcinoma cells, 16 h incubation, flow cytometry; concentration at which there was 50% degradation of the HER2/Neu protein
Experimental: MCF7 breast carcinoma cells (ATCC) were grown in Dulbecco's modified Eagle's medium (DMEM) containing 10% fetal bovine serum (FBS) and 10 mM HEPES, and plated in 24 well plates (50% confluent). Twenty-four hrs later (cells are 65-70% confluent), test compounds were added and incubated overnight for 16 h. […] The wells were washed with 1 mL phosphate buffered saline (PBS), and 200 μL trypsin was added to each well. After trypsinization was complete, 50 μL of FBS was added to each well. Then 200 μL cells was transferred to 96 well plates. The cells were pipetted up and down to obtain a single cell suspension. The plates were centrifuged at 2,500 rpm for 1 min using a Sorvall Legend RT™0 tabletop centrifuge (Kendro Laboratory Products, Asheville, N.C.). The cells were then washed once in PBS containing 0.2% BSA and 0.2% sodium azide (BA buffer). Phycoerythrin (PE) conjugated anti HER2/Neu antibody (Becton Dickinson, #340552), or PE conjugated anti-keyhole limpet hemocyanin [KLH] (Becton Dickinson; #340761) control antibody was added at a dilution of 1:20 and 1:40 respectively (final concentration was 1 μg/mL) and the cells were pipetted up and down to form a single cell suspension, and incubated for 15 mins. The cells were washed twice with 200 μL BA buffer, and resuspended in 200 μL BA buffer, and transferred to FACSCAN tubes with an additional 250 µL BA buffer. Samples were analyzed using a FACS Calibur™ flow cytometer (Becton Dickinson, San Jose, Calif.) equipped with Argon-ion laser that emits 15 mW of 488 nm light for excitation of the PE fluorochrome. 10,000 events were collected per sample. A fluorescence histogram was generated and the mean fluorescence intensity (MFI) of each sample was determined using Cellquest software. The background was defined as the MFI generated from cells incubated with control IgG-PE, and was subtracted from each sample stained with the HER2/Neu antibody. Cells incubated with DMSO were used as untreated controls since the compounds were resuspended in DMSO. Percent degradation of HER2 was calculated as follows: % HER2 degraded=[(MFI untreated cells−MF1 treated cells)/MFI untreated cell]×100
IC50 is defined as the concentration at which there was 50% degradation of the HER2/Neu protein.

[1] = tested on: MCF7 breast carcinoma cells; assay: MTS Assay; assay type: cell-based; conditions: Homo sapiens, concentration giving 50% reduction in viable cell number
Experimental: MTS assays measure the cytotoxicity of geldanamycin derivatives. MTS (3-(4,5-dimethylthiazol-2-yl)-5-(3-carboxymethoxyphenyl)-2-(4-sulfophenyl)-2H-tetrazolium) is a tetrazolium dye that is converted to a formazan product by dehydrogenase enzymes of metabolically active cells (Corey, A. et al. “Use of an aqueous soluble tetrazolium/formazan assay for cell growth assays in culture,” Cancer Commun. 1991, 3, 207-212). Cells were seeded in 96 well plates at 2000 cells/well and allowed to adhere overnight in Dulbecco's modified Eagle's medium supplemented with 10% fetal bovine serum. The final culture volume was 100 μl. Viable cell number was determined by using the Celltiter 96 AQueous Non-radioactive Cell Proliferation Assay (Promega, Madison Wis.). The MTS/PMS (phenazine methosulfate) solution was mixed at a ratio of 20:1, and 20 μL was added per well to 100 μl of culture medium. After 2-4 hours, the formation of the formazan product was measured at 490 nm absorbance using a multiwell plate spectrophotometer. Background was determined by measuring the Abs 490 nm of cell culture medium and MTS-PMS in the absence of cells and was subtracted from all values. Percent viable cells was calculated as follows: % viable cells=(Abs at 490 nm treated cells/Abs at 490 nm untreated cells)×100
The effect of selected compounds of the invention on MCF7 breast carcinoma cells according to the MTS assay is summarized in Table 2. IC50 was defined as the concentration of the compound which gave rise to 50% reduction in viable cell number.

SMILES	IC50 (HER2/Neu protein)	IC50 [1]
Cc1cnc(Cn2c(=O)n(CCn3cccc3)c3c(Cl)nc(N)nc32)c(C)c1I [Example 96, 7-(2-(1H-pyrrol-1-yl)ethyl)-2-amino-6-chloro-9-((4-iodo-3,5-dimethylpyridin-2-yl)methyl)-7H-purin-8(9H)-one]	42 nM	300 nM
Cc1cnc(Cn2c(=O)n(Cc3ccccn3)c3c(Cl)nc(N)nc32)c(C)c1I [Example 99, 2-amino-6-chloro-9-((4-iodo-3,5-dimethylpyridin-2-yl)methyl)-7-(pyridin-2-ylmethyl)-7H-purin-8(9H)-one]	120 nM	> 1000 nM
C=CCCCn1c(=O)n(Cc2ncc(C)c(OC)c2C)c2nc(N)nc(Cl)c21 [Example 35, 2-Amino-6-chloro-9-(4-methoxy-3,5-dimethyl-pyridin-2-ylmethyl)-7-pent-4-enyl-7,9-dihydro-purin-8-one]	160 nM	1000 nM
CC(=O)n1c(=O)n(Cc2ncc(C)c(I)c2C)c2nc(N)nc(Cl)c21 [Example 105, 7-acetyl-2-amino-6-chloro-9-((4-iodo-3,5-dimethylpyridin-2-yl)methyl)-7H-purin-8(9H)-one]	90 nM	300 nM
COc1c(C)cnc(Cn2c(=O)n(CCn3cccc3)c3c(Cl)nc(N)nc32)c1C [Example 89, 2-Amino-6-chloro-9-(4-methoxy-3,5-dimethyl-pyridin-2-ylmethyl)-7-(2-pyrrol-1-yl-ethyl)-7,9-dihydro-purin-8-one]	120 nM	1000 nM
Cc1cnc(Cn2c(=O)n(CCN(C)C(C)C)c3c(Cl)nc(N)nc32)c(C)c1I [Example 108, 2-amino-6-chloro-9-((4-iodo-3,5-dimethylpyridin-2-yl)methyl)-7-(2-(isopropyl(methyl)amino)ethyl)-7H-purin-8(9H)-one]	140 nM	700 nM
CCCN(CCC)CCn1c(=O)n(Cc2ncc(C)c(I)c2C)c2nc(N)nc(Cl)c21 [Example 107, 2-amino-6-chloro-7-(2-(dipropylamino)ethyl)-9-((4-iodo-3,5-dimethylpyridin-2-yl)methyl)-7H-purin-8(9H)-one]	130 nM	> 1000 nM
Cc1cnc(Cn2c(=O)n(CCN(C(C)C)C(C)C)c3c(Cl)nc(N)nc32)c(C)c1I [Example 98, 2-amino-6-chloro-7-(2-(diisopropylamino)ethyl)-9-((4-iodo-3,5-dimethylpyridin-2-yl)methyl)-7H-purin-8(9H)-one]	30 nM	600 nM
Cc1cnc(Cn2c(=O)[nH]c3c(Cl)nc(N)nc32)c(C)c1I [Example 6, 2-amino-6-chloro-9-((4-iodo-3,5-dimethylpyridin-2-yl)methyl)-7H-purin-8(9H)-one]	70 nM	300 nM
COc1c(C)cnc(Cn2c(=O)n(Cc3ccccn3)c3c(Cl)nc(N)nc32)c1C [Example 82, 2-Amino-6-chloro-9-(4-methoxy-3,5-dimethyl-pyridin-2-ylmethyl)-7-pyridin-2-ylmethyl-7,9-dihydro-purin-8-one]	170 nM	1000 nM
COC(=O)c1ccc(Cn2c(=O)n(Cc3ncc(C)c(OC)c3C)c3nc(N)nc(Cl)c32)cc1 [Example 80, 4-[2-Amino-6-chloro-9-(4-methoxy-3,5-dimethyl-pyridin-2-ylmethyl)-8-oxo-8,9-dihydro-purin-7-ylmethyl]-benzoic acid methyl ester]	160 nM	> 1000 nM
COc1c(C)cnc(Cn2c(=O)n(CCC(F)=C(F)F)c3c(Cl)nc(N)nc32)c1C [Example 71, 2-Amino-6-chloro-9-(4-methoxy-3,5-dimethyl-pyridin-2-ylmethyl)-7-(3,4,4-trifluoro-but-3-enyl)-7,9-dihydro-purin-8-one]	160 nM	> 1000 nM
COc1c(C)cnc(Cn2c(=O)n(CCC=C(C)C)c3c(Cl)nc(N)nc32)c1C [Example 20, 2-Amino-6-chloro-9-(4-methoxy-3,5-dimethyl-pyridin-2-ylmethyl)-7-(4-methyl-pent-3-enyl)-7,9-dihydro-purin-8-one]	140 nM	> 1000 nM
